# Laboratory results from paper PMC9888311, “Neonatal NET-Inhibitory Factor improves survival in the cecal ligation and puncture model of polymicrobial sepsis by inhibiting neutrophil extracellular traps” (Frontiers in Immunology, 2023).
# Where no end group is shown, it is not given here.
# Legend:
# [1] = test system: CLP model of polymicrobial sepsis; test: Blinded clinical illness severity score after CLP; assay type: in vivo, mouse (outbred Swiss Webster); settings: compared to vehicle control
# Experimental: Mice were anesthetized with 3% isoflurane in an induction chamber, and anesthesia was maintained by use of inhalation via nose cone. Sepsis was induced by cecal ligation and puncture (CLP) as previously described ([30], [31]). […] The animals received subcutaneous sterile isotonic saline (0.5 mL) for fluid resuscitation immediately after surgery. Sham-operated mice were subjected to identical procedures, except that ligation and puncture of the cecum was omitted. Survival of mice subjected to CLP or sham injury was determined daily for 6 days. Twenty-four and 48 hours after CLP, all animals were scored for clinical illness severity as previously described ([32]) by an examiner blinded to treatment arm. In this assessment, higher scores reflect increased illness severity with non-surviving mice receiving a score of 10. These mice were included in the statistical analysis. In additional experiments, mature Swiss-webster mice were treated with sham surgery or CLP procedure. At 4 hours after surgery, mice underwent blinded clinical illness severity assessment, measurement of body weight and temperature, peritoneal fluid and whole blood neutrophil counts, whole blood platelet counts, and plasma creatinine level determination.
# neutrophils = neutrophils exposed to nNIF; cited from earlier work
# Text: When considering the low DNA staining on confocal imaging of peritoneal leukocytes, it may be that the NET inhibition contributes to decreased endothelial dysfunction ([48]) and prevents immunothrombosis ([22]) which then leads to decreased inflammation. Alternatively, or in combination, the lack of NETs may lead to decreased opportunities to capture bacteria and thereby limit the chance that circulating PMNs will recognize and become acti ...
# [2] = nNIF 1 mg/kg IV at 4 and 10 hours after CLP
substance,measurement,setting,value
"KFNKPFVFLMIEQNTKSPLFMGKVVNPTQ-OH [nNIF, neonatal NET-Inhibitory Factor]",illness severity score at 48 hours,[1]; nNIF 0.5 mg/kg IV at 4 and 10 hours after CLP,improvement in the illness severity scores
same,illness severity score at 24 hours,[1]; [2],improvement in the illness severity scores
same,illness severity score at 48 hours,[1]; [2],improvement in the illness severity scores
same,neutrophil ability to generate reactive-oxygen species and phagocytize E. coli bioparticles,neutrophils,still maintain their ability
